Data reported in US7514432B2, “Compounds and methods of treating cell proliferative diseases, retinopathies and arthritis” (Exonhit Therapeutics SA, priority 2003, dated 2009).

System: intersegmental vessels of zebrafish embryos
Assay: In vivo zebrafish angiogenesis assay
Conditions: embryos 20 hpf, incubated 28 hours; for max inhibition of intersegmental vessels formation: 1% DMSO
Method: FIG. 6: In vivo zebrafish angiogenesis assay. 20 Hours post fertilization (hpf) embryos Were incubated with compounds and 1% DMSO for 28 hours. Vessels were stained with NBT/BCIP and morphometric analyses were done using the Adobe Photoshop software. For each condition, 10 embryos were analyzed and results were expressed as means±SEM. (A) dose response curves. (B) table presenting the 50% and max inhibition of intersegmental vessels formation together with the percentage of dead embryos (see material and methods).
In vivo zebrafish angiogenesis model: This assay is a viable and validated whole animal model for screening small molecules that affect blood vessel formation (Serbedzija et al, Angiogenesis, 1999). The study was subcontracted to Phylonix Pharmaceutical, Cambridge, Mass., USA. • Drug treatment: Intersegmental vessels (ISVs) in zebrafish are well accepted as angiogenic vessels, and they are easily observed using microscopy. By 20 hpf stage, the major vasculogenic vessels (dorsal aorta and caudal vein) have developed. By 48 hours post fertilization (hpf), ISVs have formed by sprouting from the dorsal aorta and caudal vein. Therefore, 20 hpf was used as the starting point and 48 hpf as the end point for drug treatment. Zebrafish embryos staged at 20 hpf were incubated with compound solution at 28° C. for 28 hours in 6-well plates, 20 embryos per well. Embryos treated with 1% DMSO and 5 μM Flavopiridol were used as negative and positive controls, respectively. • Microscopy: All light microscopy studies were performed using a ZEISS Stemi 2000-C stereomicroscope (Zeiss), equipped with a digital spot camera (Diagnostic Instruments Inc.). Images were further processed and analyzed using Adobe Photoshop 7.0 (Adobe). • Whole mount EAP staining: Embryos were fixed in 4% PFA for 2 hours at room temperature, and dehydrated in 100% ethanol following standard procedures. Embryos were then rehydrated, blocked, and stained with NBT/BCIP. After washing, embryos were examined by microscopy. • Quantitation of anti-angiogenic effects: To quantitate anti-angiogenic effects, 5 well developed trunk ISVs located around the anal pore were selected and morphometric analysis [area (pixel)× signal intensity] was performed using Adobe Photoshop. For each condition, 10 embryos were assessed and the mean value of 10 images was calculated using EXCEL software program (Microsoft Corporation). To calculate the inhibitory effect, the mean value of signal (S) in 5 ISVs in drug treated embryos was divided by mean value of S in DMSO control embryos, and calculated as % inhibition using the following formula: […]

Compound | anti-angiogenic activity in the zebrafish embryo | toxicity in zebrafish embryos | max inhibition of intersegmental vessels formation [%]
Cl.Cl.O=c1cc(CN2CCOCC2)occ1OCCCCCSc1ccnc2cc(C(F)(F)F)ccc12 [EHT 1864, 5-(5-(7-(Trifluoromethyl)quinolin-4-ylthio)pentyloxy)-2-(morpholinomethyl)-4H-pyran-4-one dihydrochloride] | dose-dependent anti-angiogenic activity | much less toxic than reference compounds Flavopiridol and SU-5416 | 77
CN1CCN(Cc2cc(=O)c(OCCCCCSc3ccnc4cc(C(F)(F)F)ccc34)co2)CC1.Cl.Cl.Cl [EHT 9241, 5-(5-(7-(Trifluoromethyl)quinolin-4-ylthio)pentyloxy)-2-((4-methylpiperazin-1-yl)methyl)-4H-pyran-4-one trihydrochloride] |  |  | 40
